Consider 32 compounds from patent US8946439B2, “Amide compounds, compositions and uses thereof” (Evotec AG, priority 2008, dated 2015).

One assay deals with T1, hP2X2/3H (Homo sapiens, UniProt P56373+Q9UBL9).
T1 construct: expressed in transfected cells; host or cells: e.g. HEK293 or 1321N1
T1 sequence (Q9UBL9 1-471): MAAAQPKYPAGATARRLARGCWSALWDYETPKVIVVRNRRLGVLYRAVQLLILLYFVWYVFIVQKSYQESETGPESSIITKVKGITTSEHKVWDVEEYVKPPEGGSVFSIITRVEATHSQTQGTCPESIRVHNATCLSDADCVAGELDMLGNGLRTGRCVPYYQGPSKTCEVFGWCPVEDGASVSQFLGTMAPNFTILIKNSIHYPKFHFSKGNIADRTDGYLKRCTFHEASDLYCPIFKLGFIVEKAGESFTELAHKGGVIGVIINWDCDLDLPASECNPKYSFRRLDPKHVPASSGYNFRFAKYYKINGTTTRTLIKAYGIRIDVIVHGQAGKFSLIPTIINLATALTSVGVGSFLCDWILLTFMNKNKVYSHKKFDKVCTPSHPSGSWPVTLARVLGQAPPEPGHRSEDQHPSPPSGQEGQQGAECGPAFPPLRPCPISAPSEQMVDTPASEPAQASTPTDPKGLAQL
T1 sequence (P56373 1-397): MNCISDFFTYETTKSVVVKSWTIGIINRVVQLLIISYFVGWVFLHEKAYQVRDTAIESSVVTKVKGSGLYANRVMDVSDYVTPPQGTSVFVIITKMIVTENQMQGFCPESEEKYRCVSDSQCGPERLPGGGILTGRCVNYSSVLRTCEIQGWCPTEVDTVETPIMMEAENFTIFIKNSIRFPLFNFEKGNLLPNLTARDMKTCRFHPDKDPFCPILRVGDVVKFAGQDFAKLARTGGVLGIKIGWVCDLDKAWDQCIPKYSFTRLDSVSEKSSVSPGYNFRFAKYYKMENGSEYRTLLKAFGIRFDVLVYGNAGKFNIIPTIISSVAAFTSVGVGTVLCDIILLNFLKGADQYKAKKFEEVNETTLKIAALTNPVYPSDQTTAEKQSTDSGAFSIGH
Nature of the assay: Calcium uptake assay (P2X antagonist assay), P2X2/3 heteromer. The format is cell-based. The settings on record: hP2X2/3H. The source says: (§1) The human P2X2/3 chimera clone is created as described by Neelands et al, and then cloned into an expression vector as above. Receptors are expressed in cells (e.g., HEK293 or 1321N1 (obtained from the ECACC)) via transient transfection using standard lipid mediated transfection, or by creation of stable transfectants for each receptor. For expression of the P2X2/3 heteromeric receptor, the P2X3 expression vector is stably transfected into a cell line already stably expressing P2X2. P2X2/3 heteromer function is isolated using pharmacological methods. Cell lines are maintained in DMEM+5% Glutamax, the appropriate level of selective antibiotic, and 10% heat inactivated FBS.
(§2) Functional activity of compounds at the P2X receptor is determined by measuring their ability to inhibit agonist-induced calcium influx. Compounds are tested for antagonist activity against the P2X2/3 chimera, the P2X3 homomer, or the P2X2/3 heteromer. At the start of each screening day, the agonist EC50 is determined. Compound % inhibition or IC50s are subsequently determined using a predetermined agonist concentration (EC50-90 depending on cell line) as a stimulus. The agonists used are αβMeATP, ATP, or other ATP analogs. Compounds may be tested at concentrations ranging from 1 pM to 10 μM.
(§3) To test for antagonist activity, cells expressing the appropriate receptor are seeded onto 96 or 384 well plates 18-24 hours prior to assay. […] Plates are incubated at 37° C. and then equilibrated at room temperature. Antagonism of agonist-induced calcium influx is measured using a fluorescent imaging plate reader (e.g. FLIPR^TETRA, Molecular Devices, Sunnyvale, Calif.). The assay comprises two stages: a pre-treatment phase followed by a treatment phase. Compounds may be tested as follows: For the pre-treatment phase, 50 μL of 3× concentration of test compound in HBSS is added to cells containing […], of dye loading media to achieve a final concentration of 1× test compound. For the treatment phase, at a set interval after pre-treatment (1-30 minutes), 50 μL of 1× test compound plus 4× agonist solution is added, resulting in a final concentration of 1× compound and 1× agonist. […] Responses are measured as (peak fluorescence after agonist addition) minus (baseline fluorescence prior to treatment). Percent inhibition is calculated as follows:
(§4) [formula] IC50 values are determined by analyzing dose response data in a 4 parameter logistic fit using GraphPad Prizm.

The target in a further assay is T2, hP2X3 (Homo sapiens, UniProt P56373).
T2 construct: expressed in transfected cells; host or cells: e.g. HEK293 or 1321N1
T2 sequence (P56373 1-397): T1 sequence (P56373 1-397)
The assay is described as follows: Calcium uptake assay (P2X antagonist assay), P2X3 homomer. The format is cell-based. The settings on record: hP2X3.
Text: as §1, §2, §3, §4

Where [1] appears, read: Ca influx (calcium uptake assay), read-out: IC50 hP2X2/3H.
Where [2] appears, read: Ca influx (calcium uptake assay), read-out: IC50 hP2X3.
Setting [3] is: calcium uptake assay, read-out: IC50 hP2X2/3H (nM), Ca Influx.
[4] abbreviates: calcium uptake assay, read-out: IC50 hP2X3 (nM), Ca Influx.

Read-outs that look alike come from different tables or passages of the source.

`Cc1ccc(-c2cc(OCC3CCOC3)cc(C(=O)N[C@H](C)c3ccc(C)nc3)c2)nc1` (stereo partly shown) [Compound 334]: the IC50 at hP2X2/3H (setting [1]) and on hP2X3 (setting [2]) was under 100 nM throughout.
Regarding `Cc1ccc(-c2cc(C(=O)NCc3ccc(C)nc3)cc(C(=O)N3CCc4ccccc4C3)c2)cc1` [Compound 187, 4′-Methyl-N-((6-methylpyridin-3-yl)methyl)-5-(1,2,3,4-tetrahydroisoquinoline-2-carbonyl)biphenyl-3-carboxamide], the IC50 on hP2X2/3H (setting [3]) and on hP2X3 (setting [4]) was 100 to 500 nM in each case.
For `COCCOc1cc(C(=O)NCc2ccc(C)nc2)cc(-c2ccc(C)cc2C#N)c1` [Compound 263], the IC50 at hP2X2/3H (setting [1]) is 100 to 500 nM; on hP2X3 (setting [2]), under 100 nM.
The matching figures for `Cc1ccc(-c2cc(C(=O)N[C@H](C)c3cnc(C)nc3)cc(S(=O)(=O)C3CCCC3)c2)cc1` [Compound 219, (R)-5-(Cyclopentylsulfonyl)-4′-methyl-N-(1-(2-methylpyrimidin-5-yl)ethyl)biphenyl-3-carboxamide]: under 100 nM and under 100 nM.
The matching figures for `Cc1ccc(-c2cc(OCC3CNCCO3)cc(C(=O)N[C@H](C)c3ccc(C)nc3)c2)nc1` (stereo partly shown) [Compound 349]: 100 to 500 nM and under 100 nM.
In the same order, the values of `Cc1ccc(-c2cc(OC(C)CO)cc(C(=O)N[C@H](C)c3ccc(C)nc3)c2)nc1` (stereo partly shown) [Compound 345] are under 100 nM and under 100 nM.
For `Cc1ccc(-c2cc(C(=O)NCc3cnc(C)cn3)cc(C(=O)N3CCCC3)c2)cc1` [Compound 51], the IC50 at hP2X2/3H (setting [3]) and on hP2X3 (setting [4]) was under 100 nM throughout.
As for `Cc1ccc(-c2cc(C(=O)NCc3cnc(C)nc3)cc(C(O)c3ccccn3)c2)cc1` (stereo not shown) [Compound 267], the IC50 at hP2X2/3H (setting [1]) and at hP2X3 (setting [2]) was under 100 nM throughout.
As to `COCCOc1cc(C(=O)N[C@H](C)c2cnc(C)nc2)cc(-c2ccc(C)cc2C#N)c1` [Compound 253], the IC50 at hP2X2/3H (setting [1]) and at hP2X3 (setting [2]) was under 100 nM in each case.
For the compound `Cc1ccc(-c2cc(OCC3CCCO3)cc(C(=O)N[C@H](C)c3ccc(C)nc3)c2)nc1` (stereo partly shown) [Compound 335], the IC50 on hP2X2/3H (setting [1]) and at hP2X3 (setting [2]) was under 100 nM each time.
As to `Cc1ccc(-c2cc(OCC(O)CO)cc(C(=O)N[C@H](C)c3ccc(C)nc3)c2)nc1` (stereo partly shown) [Compound 344], the IC50 on hP2X2/3H (setting [1]) is 100 to 500 nM; on hP2X3 (setting [2]) it was under 100 nM.
In the same order, the values of `Cc1ccc(-c2cc(C(=O)N[C@H](C)c3ccc(C)nc3)cc(C(O)CO)c2)cc1` (stereo partly shown) [Compound 289] are under 100 nM and under 100 nM.
Take `Cc1ccc(-c2cc(C(=O)NCc3ccc(C)nc3)cc(C(=O)N3CC[C@@H](N(C)C)C3)c2)cc1` [Compound 143]: the results for the IC50 on hP2X2/3H (setting [3]) and on hP2X3 (setting [4]) were 501 to 1000 nM and 100 to 500 nM, respectively.
In the same order, the values of `Cc1ccc(-c2cc(C(=O)NCc3ccc(C)nc3)cc(S(=O)(=O)N3CCCC3)c2)c(C#N)c1` [Compound 148] are over 1000 nM and under 100 nM.
As for `Cc1ccc(-c2cc(C(=O)NCc3ccc(C)[n+]([O-])c3)cc(C(O)CN3CCCC3)c2)cc1` (stereo not shown) [Compound 208], the IC50 at hP2X2/3H (setting [1]) is 100 to 500 nM; at hP2X3 (setting [2]), under 100 nM.
For `Cc1ccc(-c2cc(C(=O)NCc3ccc(C)nc3)cc(C(=O)N(C)CC3CCNCC3)c2)cc1` [Compound 169], the IC50 on hP2X2/3H (setting [3]) and on hP2X3 (setting [4]) was 100 to 500 nM each time.
For the compound `Cc1ccc(-c2cc(C(=O)NCc3ccc(C(F)(F)F)nc3)cc(C(=O)N3CC(O)C3)c2)cc1` [Compound 130, 5-(3-Hydroxyazetidine-1-carbonyl)-4′-methyl-N-((6-(trifluoromethyl)pyridin-3-yl)methyl)biphenyl-3-carboxamide], the IC50 at hP2X2/3H (setting [3]) and on hP2X3 (setting [4]) was under 100 nM throughout.
`Cc1ccc(-c2cc(C(=O)N[C@@H](C)c3ccc(C)nc3)cc(C(=O)N3CCCC3)c2)cc1` [Compound 177]: the IC50 on hP2X2/3H (setting [3]) and at hP2X3 (setting [4]) was over 1000 nM throughout.
`Cc1ccc(-c2cc(Oc3nccs3)cc(C(=O)NCc3ccc(C)nc3)c2)c(C#N)c1` [Compound 260]: the IC50 on hP2X2/3H (setting [1]) was 100 to 500 nM; on hP2X3 (setting [2]), under 100 nM.
For the compound `COCC(C)Oc1cc(C(=O)NCc2ccc(C)nc2)cc(-c2ccc(C)cc2)c1` (stereo not shown) [Compound 300], the IC50 at hP2X2/3H (setting [1]) and at hP2X3 (setting [2]) was under 100 nM in each case.
For the compound `Cc1ccc(-c2cc(C(=O)N[C@H](CCO)c3ccc(C)nc3)cc(C(=O)N(C)CC(C)C)c2)cc1` [Compound 13, (R)—N3-(3-Hydroxy-1-(6-methylpyridin-3-yl)propyl)-N5-isobutyl-N5,4′-dimethylbiphenyl-3,5-dicarboxamide], the IC50 at hP2X2/3H (setting [3]) and at hP2X3 (setting [4]) was 100 to 500 nM each time.
Turning to `Cc1ccc(-c2cc(C(=O)N[C@H](C)c3ccc(C)nc3)cc(C(=O)c3ccccc3)c2)cc1` [Compound 229, (R)-5-Benzoyl-4′-methyl-N-(1-(6-methylpyridin-3-yl)ethyl)biphenyl-3-carboxamide], the IC50 was under 100 nM on hP2X2/3H (setting [1]) and 100 to 500 nM at hP2X3 (setting [2]).
For `Cc1ccc(-c2cc(C(=O)NCc3ccc(C)nc3)cc(C(=O)N3CCOc4ccccc43)c2)cc1` [Compound 190], the IC50 on hP2X2/3H (setting [3]) was under 100 nM; on hP2X3 (setting [4]), 100 to 500 nM.
The matching figures for `Cc1ccc(-c2cc(C(=O)NCc3ccc4c(c3)OCO4)cc(C(=O)N3CCCC3)c2)cc1` [Compound 98]: 100 to 500 nM and 100 to 500 nM.
Turning to `Cc1ccc(-c2cc(C(=O)NCc3ccc4c(c3)S(=O)(=O)CC4)cc(C(=O)N3CCCC3)c2)cc1` [Compound 72], the IC50 on hP2X2/3H (setting [3]) and on hP2X3 (setting [4]) was under 100 nM in each case.
Consider `Cc1ccc(-c2cc(CO)cc(C(=O)N[C@H](C)c3ccc(C)nc3)c2)cc1` [Compound 320], for which the IC50 on hP2X2/3H (setting [1]) was 100 to 500 nM; on hP2X3 (setting [2]) it was under 100 nM.
`Cc1ccc(-c2cc(C(=O)NCc3cnc(C)nc3)cc(C(=O)N3CCN(C)CC3)c2)cc1` [Compound 25]: the IC50 at hP2X2/3H (setting [3]) was 100 to 500 nM; on hP2X3 (setting [4]), under 100 nM.
The matching figures for `Cc1ccc(-c2cc(C(=O)NCc3ccc(C)nc3)cc(C(=O)N(C)Cc3ccncc3)c2)cc1` [Compound 162, N3,4′-Dimethyl-N-5-((6-methylpyridin-3-yl)methyl)-N3-(pyridin-4-ylmethyl)biphenyl-3,5-dicarboxamide]: under 100 nM and under 100 nM.
The matching figures for `Cc1ncc(CNC(=O)c2cc(C(=O)N3CCCC3)cc(-c3ccc(F)cn3)c2)cn1` [Compound 99]: over 1000 nM and over 1000 nM.
`Cc1ccc(-c2cc(C(=O)NC(c3ccc(C)nc3)C(F)(F)F)cc(C(=O)N3CCCC3)c2)cc1` (stereo not shown) [Compound 214]: the IC50 at hP2X2/3H (setting [1]) and on hP2X3 (setting [2]) was over 1000 nM in each case.
`COCC(CO)Oc1cc(C(=O)N[C@H](C)c2ccc(C)nc2)cc(-c2ccc(C)cc2C#N)c1` (stereo partly shown) [Compound 378]: the IC50 at hP2X2/3H (setting [1]) and on hP2X3 (setting [2]) was under 100 nM throughout.
Turning to `Cc1ccc(-c2cc(S(=O)(=O)N3CCCC3)cc(C(=O)NCc3cnc(C)nc3)c2C)cc1` [Compound 67, 2,4′-Dimethyl-N-((2-methylpyrimidin-5-yl)methyl)-5-(pyrrolidin-1-ylsulfonyl)biphenyl-3-carboxamide], the results for the IC50 at hP2X2/3H (setting [3]) and on hP2X3 (setting [4]) were over 1000 nM and under 100 nM, respectively.
